According to patent US6228877A, “Substituted pyrroles” (Hoffmann-La Roche Inc., priority 1998, dated 2001):

Each compound was assayed on epithelial breast carcinoma cell line (MDAMB-435) (assay: effect of compounds on growth of epithelial breast carcinoma cell line MDAMB-435 (MTT, 5 days)). Settings: Homo sapiens, MDA-MB-435, 120 h, MDAMB-435 cells, 5 days post drug addition, 0.1% DMSO.
Assay type: cell-based
Description: The epithelial breast carcinoma cell line (MDAMB-435) was purchased from ATCC (American Type Cell Culture Collection) and was grown in culture in medium as recommended by ATCC. For analysis of the effect of various compounds on growth of these cells, the cells were plated at a concentration of 1500 cells/well in a 96 well tissue culture plate ("test plate). The day after the cells were plated, the compounds to be analyzed were dissolved in 100% DMSO (dimethyl sulfoxide) to yield at 10 mM stock solution. Each compound was diluted in H2 O to 1 mM and was added to triplicate wells in the first row of a 96 well master plate which contains medium to yield a final concentration of 40 μM. The compounds were then serially diluted in medium in the "master plate". The diluted compound(s) were then transferred to test plates containing cells. A row of vehicle "control cells" received DMSO. The final concentration of DMSO in each well was 0.1%. 5 days post drug addition, the plate was analyzed as follows:
MTT (3-(4-5 methyl thiazole-2-yl)-2,5-diphenyl tetrazolium bromide; thiazolyl blue) was added to each well to yield a final concentration of 1 mg/ml. The plate was then incubated at 37° C. for 21/2-3 hours. The MTT containing medium was then removed and 50 μl of 100% ethanol was added to each well to dissolve the formazan. The absorbences were then read using an automated plate reader (Bio-tek microplate reader).
IC50 's were calculated using the Reed and Munsch equation, see Am. J. Hygiene Vol. 27 pgs. 493-497, 1938.
`COc1ccc2c(c1)c(C1=C(c3cn(C)c4cc(C#N)ccc34)C(=O)NC1=O)cn2C` [H CH3 O H CN, 3-[4-(5-methoxy-1-methyl-1H-indol-3-yl)-2,5-dioxo-2,5-dihydro-1H-pyrrol-3-yl]-1-methyl-1H-indole-6-carbonitrile] gave an IC50 of 0.07 µM.
In the case of `CCOCCOCCOc1ccc2c(C3=C(c4cn(C)c5cc([N+](=O)[O-])ccc45)C(=O)NC3=O)cn(C)c2c1` [H H Et(OCH2 CH2)2 O NO2, 3-{6-[2-(2-Ethoxy-ethoxy)-ethoxy]-1-methyl-1H-indol-3-yl}-4-(1-methyl-6-nitro-1H-indol-3-yl)-pyrrole-2,5-dione], the IC50 is reported as 0.04 µM.
Work on `Cn1cc(C2=C(c3cn(C)c4cc([N+](=O)[O-])ccc34)C(=O)NC2=O)c2cc(Cl)ccc21` [H Cl H NO2, 3-(5-Chloro-1-methyl-1H-indol-3-yl)-4-(l-methyl-6-nitro-1H-indol-3-yl)-pyrrole-2,5-dione] yielded an IC50 of 0.17 µM.
Work on `Cn1cc(C2=C(c3cn(C)c4cc(Cl)ccc34)C(=O)NC2=O)c2ccc(N)cc21` [H H NH2 Cl, 3-(6-Amino-1-methyl-1H-indol-3-yl)-4-(6-chloro-1-methyl-1H-indol-3-yl)-pyrrole-2,5-dione] yielded an IC50 of 0.012 µM.
`Cn1cc(C2=C(c3cn(C)c4cc([N+](=O)[O-])ccc34)C(=O)NC2=O)c2ccc(Cl)cc21` [H H NO2 Cl, 3-(6-chloro-1-methyl-1H-indol-3-yl)-4-(1-methyl-6-nitro-1H-indol-3-yl)-pyrrole-2,5-dione] showed an IC50 of 0.07 µM.
For `Cc1ccc2c(c1)c(C1=C(c3cn(C)c4cc(C)ccc34)C(=O)NC1=O)cn2C` [H CH3 H CH3, 3-(1,6-Dimethyl-1H-indol-3-yl)-4-(1,5-dimethyl-1H-indol-3-yl)-pyrrole-2,5-dione], the IC50 was 0.4 µM.
Work on `Cn1cc(C2=C(c3cn(C)c4cc([N+](=O)[O-])ccc34)C(=O)NC2=O)c2ccc(NC(=O)C(F)(F)F)cc21` [H H CF3 CONH NO2, N-{1-methyl-3-[4-(1-methyl-6-nitro-1H-indol-3-yl)-2,5-dioxo-2,5-dihydro-1H-pyrrol-3-yl]-1H-indol-3-yl}-trifluoroacetamide] yielded an IC50 of 0.012 µM.
For `Cc1ccc2c(C3=C(c4cn(C)c5ccc(C#N)cc45)C(=O)NC3=O)cn(C)c2c1` [H CN H CH3, 3-[4-(1,6-Dimethyl-1H-indol-3-yl]-2,5-dioxo-2,5-dihydro-1H-pyrrol-3-yl]1-methyl-1H-indole-5-carbonitrile], the IC50 was 0.4 µM.
For `CCOc1ccc2c(C3=C(c4cn(C)c5cc(N)ccc45)C(=O)NC3=O)cn(C)c2c1` [H H NH2 EtO], the IC50 was 0.012 µM.
`Cc1ccc2c(C3=C(c4cn(C)c5cc(C#N)ccc45)C(=O)NC3=O)cn(C)c2c1` [H H CH3 CN, 3-[4-(1,6-dimethyl-1H-indol-3-yl)-2,5-dioxo-2,5-dihydro-1H-pyrrole-3-yl]-1-methyl-1H-indole-6-carbonitrile] showed an IC50 of 0.01 µM.
`Cn1cc(C2=C(c3cn(C)c4cc([N+](=O)[O-])ccc34)C(=O)NC2=O)c2ccc([N+](=O)[O-])cc21` [H H NO2 NO2, 3,4-Bis-(1-methyl-6-nitro-1H-indol-3-yl)-pyrrole-2,5-dione] showed an IC50 of 0.07 µM.
Compound `COc1ccc2c(c1)c(C1=C(c3cn(C)c4cc(OC)ccc34)C(=O)NC1=O)cn2C` [H CH3 O H CH3 O] has an IC50 of 0.07 µM.
For `COc1ccc2c(C3=C(c4cn(C)c5cc(C)ccc45)C(=O)NC3=O)cn(C)c2c1` [H H CH3 OCH3, 3-(1,6-dimethyl-1H-indol-3-yl)-4-(6-methoxy-1-methyl-1H-indol-3-yl)-pyrrole-2,5-dione], the IC50 was 0.02 µM.
Compound `COc1ccc2c(C3=C(c4cn(C)c5cc(OC)ccc45)C(=O)NC3=O)cn(C)c2c1` [H H OCH3 OCH3, 3,4-Bis-(6-methoxy-1-methyl-1H-indol-3-yl)-pyrrole-2,5-dione] has an IC50 of 0.005 µM.
`Cc1ccc2c(C3=C(c4cn(C)c5cc([N+](=O)[O-])ccc45)C(=O)NC3=O)cn(C)c2c1` [H H CH3 NO2, 3-(1,6-dimethyl-1H-indol-3-yl)-4-(1-methyl-6-nitro-1H-indol-3-yl)-pyrrole-2,5-dione] was tested, and the IC50 was 0.07 µM.
Work on `Cn1cc(C2=C(c3cn(C)c4cc([N+](=O)[O-])ccc34)C(=O)NC2=O)c2cc(C#N)ccc21` [H CN H NO2, 1-Methyl-3-[4-(1-methyl-6-nitro-1H-indol-3-yl)-2,5-dioxo-2,5-dihydro-1H-pyrrol-3-yl]-1H-indole-5-carbonitrile] yielded an IC50 of 1 µM.
For `COC(=O)c1ccc2c(C3=C(c4cn(C)c5cc(N)ccc45)C(=O)NC3=O)cn(C)c2c1` [H H NH2 CO2 CH3, 3-[4-(6-Amino-1-methyl-1H-indol-3-yl)-2,5-dioxo-2,5-dihydro-1H-pyrrol-3-yl] -1-methyl-1H-indole-6-carboxylic acid methyl ester], the IC50 was 0.05 µM.
